According to patent publication US6559161B1, “Cytotoxic pyrido[2,3,4-ki]acridine derivatives, their preparation and their therapeutic use” (Universidad de Barcelona, priority 1999, dated 2003):
Where two headings read alike, the source gives them in different places.

How the values were obtained:
[1] = test system: P-388D1 (ATCC CCL-46, lymphoid neoplasm from DBA/2 mouse); experiment: cytotoxicity, growth inhibition of P-388D1 cells in culture; type: cell-based; conditions: approximate IC50, three days of incubation at 37° C., growth vs control wells
Excerpt: (§1) The antitumour activity of the compounds of the present invention has been detected in vitro by culturing the tumour cells following the methodology described in Bergeron et al (1984), and by Schroeder et al (1981). Activity against different tumours as mouse lymphoma, human NSC lung carcinoma, human melanoma and human colon carcinoma has been observed.
(§2) Biological activity: cells were maintained in logarithmic phase of growth in Eagle's Minimum Essential Medium, with Earle's Balanced Salts, with 2.0 mM L-glutamine, with non-essential amino acids, without sodium bicarbonate (EMEM/neaa); supplemented with 10% Fetal Calf Serium (FCS), 10^−2 M sodium bicarbonate and 0.1 g/l penicillin-G+streptomycin sulfate.
(§3) The tumour cell lines employed have been P-388D1 (ATCC CCL-46, suspension culture of a lymphoid neoplasm from DBA/2 mouse), A549 (ATCC CCL-185, monolayer culture of a human lung carcinoma), HT-29 (ATCC HTB-38, monolayer culture of a human colon carcinoma) and SK-MEL-28 (ATCC HTB-72, monolayer culture of a human melanoma).
P-388D1 cells were seeded into 16 mm wells at 1×10^4 cells per well in 1 ml aliquots of MEM 5FCS containing the indicated concentration of drug. A separate set of cultures without drug was seeded as control growth to ensure that cells remained in expotential phase of growth. All determinations were carried out in duplicate. After three days of incubation at 37° C., 10% CO2 in a 98% humid atmosphere, an approximate IC50 was determined by comparing the growth in wells with drug to the growth in wells control.

[2] = test system: A549 (ATCC CCL-185, human lung carcinoma); experiment: cytotoxicity, growth inhibition of A549 cells, Crystal Violet staining; type: cell-based; conditions: approximate IC50, three days of incubation at 37° C., read-out: IC50 (μM) A549 ATCC-CCL-L-185
Excerpt: as §1, §2, §3
(§4) A549, HT-29 and SK-MEL-28 were seeded into 16 mm wells at 2×10^4 cells per well in 1 ml aliquots of MEM 10FCS containing the indicated concentration of drug. A separate set of cultures without drug and was seeded as control growth to ensure that cells remained in exponential phase of growth. All determinations were carried out in duplicate. After three days of incubation at 37° C., 10% CO2 in a 98% humid atmosphere, the wells were stained with 0.1% Crystal Violet. An approximate IC50 was determined by comparing the growth in wells with drug to the growth in wells control.

[3] = test system: HT-29 (ATCC HTB-38, human colon carcinoma); experiment: cytotoxicity, growth inhibition of HT-29 cells, Crystal Violet staining; type: cell-based; conditions: approximate IC50, three days of incubation at 37° C.
Excerpt: as §1, §2, §3, §4

[4] = test system: SK-MEL-28 (ATCC HTB-72, human melanoma); experiment: cytotoxicity, growth inhibition of SK-MEL-28 cells, Crystal Violet staining; type: cell-based; conditions: approximate IC50, three days of incubation at 37° C.
Excerpt: as §1, §2, §3, §4

Row | melting point [°C] | Structure (SMILES) | IC50 [1] [µM] | IC50 [2] [µM] | IC50 [3] [µM] | IC50 [4] [µM] | IC50 ([1]; Mus musculus, P388D1, 72 h) [µM] | IC50 ([2]; Homo sapiens, A549, 72 h) [µM] | IC50 ([3]; Homo sapiens, HT-29, 72 h) [µM] | IC50 ([4]; Homo sapiens, SK-MEL-28, 72 h) [µM]
1 | – | COc1ccc2c3c(c4ccccc4nc13)C=CN2 [Example 1, 3H-6-Methoxypyrido[2,3,4-kl]acridine] | 0.5 | 0.05 | 0.5 | 0.05 | – | – | – | –
2 | 220 to 223 | COc1cc([N+](=O)[O-])c2c3c(c4ccccc4nc13)C=CN2 [Example 3, 6-Methoxy-4-nitro-3H-pyrido[2,3,4-kl]acridine] | – | – | – | – | 0.34 | 0.03 | 0.34 | 0.03
3 | 128 to 132 | COc1cc(NC(C)=O)c2c3c(c4ccccc4nc13)C=CN2 [Example 4, 4-Acetylamino-6-methoxy-3H-pyrido[2,3,4-kl]acridine] | – | – | – | – | 1.64 | 0.03 | 1.64 | 0.03
